Consider five compounds from PubChem BioAssay (NCI).

Some test systems named below: HL-60(TB) leukemia; 786-0 renal; T-47D breast; MDA-N; SW-620 colon; MALME-3M melanoma; OVCAR-3 ovarian; MCF7 breast; U251 CNS; IGROV1 ovarian; NCI-H23 lung.
Common to all, as to test: NCI tumour cell line growth inhibition, 48 h

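Cultured in 96-well plates, cells were exposed to test compound for 48 hours across five concentrations. TGI is the concentration that stops growth completely.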 Some results are limits rather than exact numbers.

In the case of `N#Cc1cnc(N)nc1NCC1(CO)CC(CCc2ccccc2)C1` (stereo not given), the TGI in the test with HL-60(TB) leukemia is > 100 µM; in the test on 786-0 renal it was > 100 µM; in the test on T-47D breast, > 20.5 µM; with MDA-N, > 100 µM; with SW-620 colon, > 100 µM; with MALME-3M melanoma, > 100 µM. In addition, the TGI with OVCAR-3 ovarian, in the test on MCF7 breast, in the test on U251 CNS, with IGROV1 ovarian and with NCI-H23 lung was > 100 µM each time.
Turning to `O=[N+]([O-])c1cc(-c2nc(-c3ccccc3)c(-c3ccccc3)[nH]2)c(O)c([N+](=O)[O-])c1`, the TGI with HL-60(TB) leukemia is 70.1 µM; with 786-0 renal, 48.6 µM; in the test on T-47D breast, 68.3 µM; in the test on MDA-N, > 100 µM; in the test with SW-620 colon, 90.8 µM; in the test with MALME-3M melanoma, 52 µM. The TGI in the test with OVCAR-3 ovarian is > 100 µM; in the test on MCF7 breast it was 72.9 µM; in the test with U251 CNS, 29.5 µM; in the test on IGROV1 ovarian it was > 100 µM; with NCI-H23 lung, 36.1 µM.
On to `Cc1ccc(S(=O)(=O)NNCNC(=O)c2ccccc2)cc1`, for which the TGI is 48.2 µM with HL-60(TB) leukemia; > 100 µM in the test on 786-0 renal; > 100 µM in the test on T-47D breast; > 100 µM in the test with MDA-N; > 100 µM in the test with SW-620 colon; > 100 µM in the test with MALME-3M melanoma. Also, the TGI in the test on OVCAR-3 ovarian, in the test on MCF7 breast, in the test on U251 CNS, in the test with IGROV1 ovarian and in the test with NCI-H23 lung was > 100 µM throughout.
With `CC(=O)O[C@H]1[C@H](OC(=O)CC(C)(O)CC(=O)O)C[C@]2(C)C3=C(CCC2C1(C)C)[C@]1(C)CC[C@H]([C@H]2CC[C@H](C(C)(C)O)OC2O)[C@@]1(C)[C@@H](O)C3` (stereo not given in full), the TGI was 36.5 µM in the test with HL-60(TB) leukemia; 37.3 µM with 786-0 renal; 40.2 µM with T-47D breast; 34.3 µM in the test on MDA-N; 27.2 µM in the test with SW-620 colon; 57.3 µM in the test on MALME-3M melanoma. Further, the TGI with OVCAR-3 ovarian amounted to 30.4 µM; with MCF7 breast, 45.8 µM; in the test on U251 CNS, 35.5 µM; in the test with IGROV1 ovarian it was 30.8 µM; with NCI-H23 lung, 32.2 µM.
In the case of `CCOC(=O)C(SCCO)C(C(=O)OCC)n1ccc(=O)[nH]c1=O` (stereo not given), the TGI is 12 µM in the test with HL-60(TB) leukemia; > 50.6 µM in the test with 786-0 renal; > 100 µM in the test with T-47D breast; 97.8 µM in the test on MDA-N; 46.8 µM in the test on SW-620 colon; 32.9 µM in the test on MALME-3M melanoma. Besides, the TGI in the test with OVCAR-3 ovarian was 72.7 µM; with MCF7 breast it was > 62.1 µM; in the test with U251 CNS it was 82.9 µM; in the test with IGROV1 ovarian it was > 95 µM; with NCI-H23 lung, > 100 µM.
